1 compound from patent publication US12241888B2, “Platform for assessment of the transcytosis of extracellular vesicles across endothelial barriers and uses thereof” (Children's Medical Center Corporation, priority 2018, dated 2025) can be followed below.

This assay concerns brain EC monolayer. The experiment in a line: Transcytosis assay with chemical-inhibition of endocytosis. It counts as cell-based, Human. The conditions noted are these: endothelial cells pretreated with increasing doses of endocytosis inhibitor. On the procedure:
The model was optimized for this novel application. […] The cells become confluent in 48-72 hours. […] A-2) Transcytosis assay with chemical-inhibition of endocytosis: Transcytosis occurs following the uptake of macromolecules or EVs via endocytosis. […] A variety of chemicals that target different steps of endocytosis (e.g. Dynasore, filipin, etc.) can be used to pretreat the endothelial cells in the transwell® model to inhibit endocytosis prior to the transcytosis assay. […] It is worth to note that the endocytosis of EVs depends on the interaction of EV surface proteins with endothelial cell receptors, which depending on the EV proteins involved can go through different routes of endocytosis (clathrin-dependent, clathrin-independent, etc.).

In the case of `O=C(N/N=C/c1ccc(O)c(O)c1)c1cc2ccccc2cc1O` [Dynasore], the “fluorescence intensity in the lower chamber (EV transcytosis signal)” value is “decreased with increasing doses”.
